System: PI3Kα-KO MEFs
Assay: Mass spectrometry-based phosphoproteomics, PI3Kα-KO MEFs
Assay type: cell-based, mouse
Experimental: PI3Kα-WT and PI3Kα-KO MEFs, grown in 15 cm dishes, were serum-starved overnight in DMEM with 1% penicillin-streptomycin and stimulated by the addition of 0.05% DMSO, 5 μM 1938 in final 0.05% DMSO or 100 nM insulin (Sigma #I5016) for 15 min or 4 h. Cells were lysed in 500 μl urea lysis buffer [50 mM triethylammonium bicarbonate, 8 M urea, cOmplete™ EDTA-free protease inhibitor cocktail (1:50 dilution) (Roche #11873580001), 1 PhosSTOP tablet (Roche #4906845001) per 10 ml of lysis buffer, 1 mM sodium orthovanadate] and lysates sonicated until clear for ~10 min with cooling breaks on ice. Protein concentration was measured using a BCA protein assay (Pierce #23227). 300 μg of protein was reduced with 5 mM Tris(2-carboxyethyl)phosphine hydrochloride (Sigma #C4706) at 37°C for 20 min and alkylated using 10 mM 2-chloroacetamide (Sigma #22790) for 20 min at room temperature in the dark. Proteins were digested with LysC (#129-02541; FUJIFILM Wako Chemicals, Osaka, Japan) for 3.5 h at 30°C. Samples were then diluted with 50 mM triethylammonium bicarbonate (Sigma #T7408) to reduce the urea concentration to 1.5 M, followed by an overnight peptide digestion with trypsin (Promega #V5113) at 37°C. Digest reactions were quenched by the addition of 10% trifluoroacetic acid (EMD Millipore #302031-M) to a final pH of 2.0. Sample desalting was performed using 35-350 μg C18 columns (HMM S18V; The Nest Group, Inc., Southborough, MA, USA) according to the manufacturer’ specifications. TiO2 (Hichrome Titansphere TiO2, 10 μm capacity, 100 mg, GL Sciences #5020-75010) was used for phosphoenrichment. Following peptide loading onto TiO2, the beads were sequentially washed with 1 M glycolic acid (Sigma #124737)/80% acetonitrile/5% trifluoroacetic acid, followed by 80% acetonitrile/0.2% trifluoroacetic acid and 20% acetonitrile before elution with 5% ammonium hydroxide. Enriched samples were desalted using 7-70 μg C18 columns (HUM S18V; The Nest Group, Inc., Southborough, MA, USA) according to the manufacturer’s specifications. Dried phosphopeptide samples were stored at -80°C and resuspended in 10% formic acid immediately prior to analysis. nLC-MS/MS was performed on a Q-Exactive Orbitrap Plus interfaced to a NANOSPRAY FLEX ion source and coupled to an Easy-nLC 1000 (Thermo Scientific). Fifty percent of each sample was analysed as 10 μl injections. Peptides were separated on a 27 cm fused silica emitter, 75 μm diameter, packed in-house with Reprosil-Pur 200 C18-AQ, 2.4 μm resin (Dr. Maisch, Ammerbuch-Entringen, Germany) using a linear gradient from 5% to 30% acetonitrile/0.1% formic acid over 180 min, at a flow rate of 250 nl/min. Peptides were ionised by electrospray ionisation using 1.9 kV applied immediately prior to the analytical column via a microtee built into the nanospray source with the ion transfer tube heated to 320°C and the S-lens set to 60%. Precursor ions were measured in a data-dependent mode in the orbitrap analyser at a resolution of 70,000 and a target value of 3e6 ions. The ten most intense ions from each MS1 scan were isolated, fragmented in the HCD cell, and measured in the Orbitrap at a resolution of 17,500.
Raw data were analysed with MaxQuant[72] (version 1.5.5.1) where they were searched against the mouse UniProt database (http://www.uniprot.org/, downloaded 04/12/2018) using default settings. Carbamidomethylation of cysteines was set as fixed modification, and oxidation of methionines, acetylation at protein N-termini, phosphorylation (on S, T or Y) were set as variable modifications. Enzyme specificity was set to trypsin with maximally 2 missed cleavages allowed. To ensure high confidence identifications, peptide-spectral matches, peptides, and proteins were filtered at a less than 1% false discovery rate (FDR). Label-free quantification in MaxQuant was used with a LFQ minimum ratio count of 2, Fast LFQ selected and the ‘skip normalisation’ option selected. […]

CCN1CCN(c2ccc(Nc3cc(Nc4cccc5c4N(C(C)=O)CC5)ccn3)cc2)CC1 [Compound 1938]
signalling impact (phosphoproteomics) (PI3Kα-KO MEFs, 1938 5 μM): little signalling impact
log2FC, PI3Ka KO 15’ 1938 vs PI3Ka KO DMSO (phosphosite Cask_S544): -0.1046
log2FC, PI3Ka KO 4 h 1938 vs PI3Ka KO DMSO (phosphosite Cask_S544): NegInf
log2FC, PI3Ka KO 15’ 1938 vs PI3Ka KO DMSO (phosphosite Cask_S545): 0.1395
log2FC, PI3Ka KO 4 h 1938 vs PI3Ka KO DMSO (phosphosite Cask_S545): 0.1333
log2FC, PI3Ka KO 15’ 1938 vs PI3Ka KO DMSO (phosphosite Gm42715_S1683): Inf
log2FC, PI3Ka KO 4 h 1938 vs PI3Ka KO DMSO (phosphosite Gm42715_S1683): Inf

From publication PMC7614683, “A small molecule PI3Kα activator for cardioprotection and neuroregeneration” (Nature, 2023)
